# Several values for one entry are separate records, joined by “and”; a condition that tells them apart may be missing. Equal values may be shown once. Entries after “also recorded” stand apart in the source; their conditions may differ.
# What was measured:
# NF-kB = assay: TNF-α-induced NF-kB DNA binding, EMSA; format: cell-based, human; settings: same treatment set
# Method: EMSA. Electrophoretic mobility shift assay (EMSA). Drug or vehicle control (DMSO) treated cells were pelleted by centrifugation (20,000×g for 1 min at 4° C.) and subsequently washed in five volumes of 10 mM HEPES, pH 7.9, 10 mM KCl, 1.5 mM MgCl2, 0.5 mM DTT, […], 5 μg/ml aprotinin, 1 μg/ml pepstatin A and 2 μg/ml leupeptin, centrifuged, then lysed in the same buffer supplemented with 1% NP-40 and incubated for 20 min on ice. The nuclei-containing pellet was resuspended in equal volumes of low salt buffer (10 mM HEPES, 25% glycerol, 1.5 mM MgCl2, 20 mM KCl, 0.5 mM DTT, 0.2 mM EDTA and protease inhibitors) and high salt buffer (low salt buffer containing 800 mM KCl). This fraction was then isolated by centrifugation at 4° C. for 10 min and supernatants saved as nuclear protein extract and stored at −70° C. Gel mobility shift assays were performed to detect Stat5a/b DNA binding activity using a Stat5 DNA binding sequence corresponding to the promoter of the β-casein gene (5′-[…]-3′) or an NF-kB binding element (5′-[…]-3′). Both probes were end-labeled with [^32P]dATP. […]
# In FIG. 9A, it can be seen that NC1153 inhibits Jak3 driven transcription factor-Stat5a/b in PHA activated T-cells treated with increasing concentrations of NC1153 in a dose dependent manner as measured via EMSA analysis (upper panel). […]
# Fyn = Fyn (Homo sapiens, UniProt P06241); assay: Kinase substrate phosphorylation (FIG. 9C); format: biochemical; settings: 10 or 50 μM
# Sequence of Fyn (P06241 whole entry, species assumed): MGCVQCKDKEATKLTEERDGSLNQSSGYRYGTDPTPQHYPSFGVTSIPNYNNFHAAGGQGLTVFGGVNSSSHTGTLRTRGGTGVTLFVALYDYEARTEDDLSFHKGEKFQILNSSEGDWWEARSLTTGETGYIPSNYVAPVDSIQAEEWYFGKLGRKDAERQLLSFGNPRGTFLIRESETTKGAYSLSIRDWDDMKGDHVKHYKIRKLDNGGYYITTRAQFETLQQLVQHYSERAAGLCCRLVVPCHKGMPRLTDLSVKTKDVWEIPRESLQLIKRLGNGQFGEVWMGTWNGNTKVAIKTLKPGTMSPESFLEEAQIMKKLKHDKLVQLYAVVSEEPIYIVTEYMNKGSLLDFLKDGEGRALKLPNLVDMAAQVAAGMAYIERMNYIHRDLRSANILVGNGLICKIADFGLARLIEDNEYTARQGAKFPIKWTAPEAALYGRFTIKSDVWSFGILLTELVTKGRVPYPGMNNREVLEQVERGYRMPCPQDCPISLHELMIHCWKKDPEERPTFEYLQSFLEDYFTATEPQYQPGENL
# Method: (§1) Non-Jak3 mediated NfκB activation by TNF-α was not affected within the same treatment set (lower panel). […] Prolactin [PRL] (+) or (−) indicates whether the cells were stimulated with prolactin with Jak2 activation. Phosphotyrosine Western blots detect Jak2-Stat5 activation but no inhibition by 649641P (NC1153). […] 649641P (NC1153) was tested at 10 (open bars) or 50 μM (filled bars) to block growth factor tyrosine kinases (FGFR3 and PDGFRα), Src family tyrosine kinases (Src, Fyn, Lck, Yes, Zap70) or serine threonine kinases (PKC and PKA) phosphorylation of a substrate. The activity of the control is plotted as a dashed line.
# (§2) In FIG. 9A, it can be seen that NC1153 inhibits Jak3 driven transcription factor-Stat5a/b in PHA activated T-cells treated with increasing concentrations of NC1153 in a dose dependent manner as measured via EMSA analysis (upper panel). The lane identified as “cold compete” contains unlabeled probe. However, non-Jak3 mediated NfκB activation (lower panel) by TNF-α was not affected within the same treatment set. […] Rat Nb2 cells were treated with increasing concentration of NC1153 and then stimulated with prolactin. Phosphotyrosine Western blots detect activation but no inhibition by NC1153. […] Activity of the control is plotted as a dashed line.
# Lck = Lck (Homo sapiens, UniProt P06239); assay: Kinase substrate phosphorylation (FIG. 9C); format: biochemical; settings: 10 or 50 μM
# Sequence of Lck (P06239 whole entry, species assumed): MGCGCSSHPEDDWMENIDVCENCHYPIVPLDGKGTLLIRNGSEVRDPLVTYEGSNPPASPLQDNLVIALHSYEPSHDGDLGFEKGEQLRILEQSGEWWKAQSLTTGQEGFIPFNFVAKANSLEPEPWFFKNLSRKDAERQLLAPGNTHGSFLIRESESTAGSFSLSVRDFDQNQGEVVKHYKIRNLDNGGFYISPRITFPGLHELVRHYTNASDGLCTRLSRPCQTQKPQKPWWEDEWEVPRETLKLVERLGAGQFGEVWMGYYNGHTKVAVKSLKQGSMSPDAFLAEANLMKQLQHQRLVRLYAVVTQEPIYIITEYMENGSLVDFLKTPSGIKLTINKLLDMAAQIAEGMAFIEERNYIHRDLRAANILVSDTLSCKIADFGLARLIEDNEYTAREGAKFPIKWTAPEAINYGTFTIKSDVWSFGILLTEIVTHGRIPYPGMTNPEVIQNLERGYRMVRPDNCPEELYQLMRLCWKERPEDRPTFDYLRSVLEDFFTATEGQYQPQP
# Method: as §1, §2
# Zap70 = target: T1, Zap70 (Homo sapiens, UniProt P43403); assay: Kinase substrate phosphorylation (FIG. 9C); format: biochemical; settings: 10 or 50 μM
# T1 sequence (P43403 1-619): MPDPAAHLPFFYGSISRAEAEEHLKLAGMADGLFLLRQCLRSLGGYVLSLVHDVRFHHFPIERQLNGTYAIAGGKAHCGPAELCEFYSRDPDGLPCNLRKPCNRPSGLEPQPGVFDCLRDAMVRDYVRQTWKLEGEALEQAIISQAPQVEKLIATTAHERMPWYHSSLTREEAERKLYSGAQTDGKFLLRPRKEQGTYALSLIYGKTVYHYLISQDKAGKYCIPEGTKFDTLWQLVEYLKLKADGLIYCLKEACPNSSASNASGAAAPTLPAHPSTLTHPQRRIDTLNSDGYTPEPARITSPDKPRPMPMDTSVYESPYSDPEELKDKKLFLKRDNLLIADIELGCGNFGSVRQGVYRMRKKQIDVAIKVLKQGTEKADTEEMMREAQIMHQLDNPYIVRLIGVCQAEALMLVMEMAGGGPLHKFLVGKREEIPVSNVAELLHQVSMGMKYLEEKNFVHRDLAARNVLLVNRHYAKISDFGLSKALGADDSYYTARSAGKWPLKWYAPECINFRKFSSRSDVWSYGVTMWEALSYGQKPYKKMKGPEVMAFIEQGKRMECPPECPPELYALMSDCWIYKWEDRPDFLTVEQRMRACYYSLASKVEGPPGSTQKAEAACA
# Method: as §1, §2
# LEW kidney allografts = assay: Rat kidney allograft survival (LEW donors to ACI recipients); format: in vivo
# Excerpt: Rat Kidney Transplants. Adult male ACI (RT1^a) and Lewis (LEW; RT1^1) rats (160-200 g) obtained from Harlan Sprague-Dawley (Indianapolis, Ind.) were cared for according to the guidelines of the Animal Welfare Committee. Rats were housed in light- and temperature-controlled quarters and given chow and water ad libitum. Kidneys were transplanted heterotopically from LEW donors to ACI recipients using a standard microsurgical technique of Ono and Lindsey^28. […] A control group of recipients remained untreated. […] Graft survival time was defined as animal survival of life supporting kidney transplant.
# (§3) To test the in vivo effects, recipients of kidney allografts were treated with 649641P (NC1153) for 7 days beginning immediately after transplantation. […] A mean survival time (MST) and SD was calculated for each group from 5-6 experiments.
# A MST and SD were calculated for each group from 5-6 experiments. The combination index (CI) values were calculated.
# [1] = Oral bioavailability estimated from allograft survival p.o. versus i.v.; settings: ACI, rat, in vivo, 80 mg/kg p.o. gave similar survivals as 10 mg/kg i.v.
# Method: as §3
smiles,measurement,setting,value
CN(C)CC1CCCCCCCCCC(CN(C)C)C1=O (mixture of isomers) [649641P (NC1153)],NF-kB activation / DNA binding by TNF-α (EMSA),NF-kB,not affected; also recorded: no effect
same,NF-kB activation / DNA binding by TNF-α (EMSA),NF-kB; listed as NC1153,not affected
same,Fyn phosphorylation of a substrate,Fyn,fails to affect the activity
same,Fyn phosphorylation of a substrate,Fyn; listed as NC1153,fails to affect activity
same,Lck phosphorylation of a substrate,Lck,fails to affect the activity
same,Lck phosphorylation of a substrate,Lck; listed as NC1153,fails to affect activity
same,Zap70 phosphorylation of a substrate,Zap70,fails to affect the activity
same,Zap70 phosphorylation of a substrate,Zap70; listed as NC1153,fails to affect activity
same,MST ± SD,LEW kidney allografts; 649641P (NC1153) 2.5 mg/kg/d i.v. × 7 days alone,9.5 ± 1.4 days and 9.5 ± 1.5 days
same,MST ± SD,LEW kidney allografts; 649641P (NC1153) 5.0 mg/kg/d i.v. × 7 days alone,12.2 ± 1.5 days
same,MST ± SD,LEW kidney allografts; 649641P (NC1153) 10.0 mg/kg/d i.v. × 7 days alone,18.8 ± 1.1 days
same,MST ± SD,LEW kidney allografts; 649641P (NC1153) 20.0 mg/kg/d i.v. × 7 days alone,24.8 ± 6.6 days and 24.8 ± 4.6 days
same,MST ± SD,LEW kidney allografts; 649641P (NC1153) 40.0 mg/kg/d p.o. × 7 days alone,12.3 ± 1.26 days
same,MST ± SD,LEW kidney allografts; 649641P (NC1153) 80.0 mg/kg/d p.o. × 7 days alone,18.6 ± 5.32 days
same,MST ± SD,LEW kidney allografts; 649641P (NC1153) 160.0 mg/kg/d p.o. × 7 days alone,31.0 ± 3.9 days
same,MST,LEW kidney allografts; 649641P (NC1153) 240 mg/kg/day p.o. for 7 days,47.8 ± 19.59 days
same,rat kidney allograft survival,"LEW kidney allografts; given alone, i.v. or oral gavage, 7 days",prolonged rat kidney allograft survival in a dose-dependent fashion
same,bioavailability,[1],~12.5%

# Source: US7365096B2, “Methods for selectively inhibiting Janus tyrosine kinase 3 (Jak3)” (Board of Regents, The University of Texas System, priority 2002, dated 2008)
